# Results as given in PMC7794397, “Curbing gastrointestinal infections by defensin fragment modifications without harming commensal microbiota” (Communications Biology, 2021).
# Read-outs that look alike come from different tables or passages of the source. Non-standard residues stand in square brackets, D forms with d. Residues, ends and D or L forms follow the SMILES beside them. ξ: configuration not given here. *: point of attachment. X2 = CCCCCCCCCCCCCCCC(=O)OCC(COC(=O)CCC(=O)*)OC(=O)CCCCCCCCCCCCCCC; X1 = CCCCCCCCCCCCCCCC(=O)OCC(C*)OC(=O)CCCCCCCCCCCCCCC; Palmitoyl = CCCCCCCCCCCCCCCC(=O)*; ξK = NCCCCC(N)C(=O)O; ξC = NC(CS)C(=O)O
# Experiments:
# [1] = test system: E. coli; experiment: Antibiogram of ESKAPE pathogens; format: cell-based; conditions: Escherichia coli, column assigned by order in flattened table
# Source text: (§1) Supplementary Table 1. Antibiogram of ESKAPE pathogens used in this study.
# (§2) Bacteria susceptible to all (blue color) or intermediate/resistant to at least one (red color) of antibiotics per class following the EUCAST breakpoints. Black color is shown if the susceptibility to agents in that class is not assessed. Values are minimal inhibition concentrations (MIC) in µg/ml or for Chloramphenicol in diameter (mm). […]
# [2] = test system: ESKAPE pathogens; experiment: organism not typed
# Source text: as §1, §2
# [3] = test system: E. faecium; experiment: microbe, parasite or virus in culture; conditions: for MIC: Enterococcus faecium
# Source text: as §1, §2
# [4] = test system: multidrug resistant bacteria belonging to the ESKAPE pathogen panel; format: cell-based; conditions: broth microdilution, ESKAPE panel
# Description: Bactericidal activity was assessed by broth microdilution assay. […] After incubation, 100 µl of 6% TSB (w/v) were added and absorbance was measured at 600 nm (Tecan, Switzerland) and monitored for 18 h. Afterward, 100 µl per well were plated on LB agar to determine the numbers of viable bacteria microbiologically. Bactericidal activity is expressed as the LC99.9, the lowest concentration that killed ≥99.9 % of bacteria.
# [5] = test system: several pathogenic bacteria; experiment: Radial diffusion assay, all tested strains; format: cell-based
# Description: (§3) Antimicrobial activity was analyzed by radial diffusion assay. Log-phase bacteria were cultivated for up to 18 h in TSB (TSB, Becton Dickinson, USA), washed and diluted to 4 × 10^6 CFU in 10 ml agar. Bacteria were incubated in 10 ml of 10 mM sodium phosphate, pH 7.4, containing 0.3 mg/ml of TSB powder and 1% (w/v) low EEO-agarose (AppliChem). 1 µg of each lipopeptide was pipetted into punched wells in a final volume of 4 µl and diffused into the gel for 3 h at 37 °C. After that, a nutrient-rich gel with 6% TSB (w/v) and 1% agarose in 10 mM sodium phosphate buffer was poured on top of the first gel and incubated for up to 24 h at 37 °C. Then the diameter of inhibition zones was measured.
# [6] = test system: S. aureus ATCC 25923; format: cell-based; conditions: for Fold change in MIC: relative to MIC of first passage, Mean
# Description: Development of resistance to the peptides was assessed with S. aureus and S. Typhimurium. […] Bacteria were cultured overnight at 37 °C at 150 rpm in TSB. Bacteria were washed twice with 10 mM sodium phosphate buffer containing 1% (w/v) TSB. […] After incubation, 100 µl of 6% TSB (w/v) was added and plates incubated in a humidified atmosphere for 21 h at 37 °C and 150 rpm.
# The MIC, the lowest concentration of peptide/antibiotic that caused a lack of visible bacterial growth, was determined for each bacterial species. […] This was repeated for 25 passages.
# [7] = test system: S. aureus; experiment: Antibiogram of ESKAPE pathogens; format: cell-based; conditions: Staphylococcus aureus
# Source text: as §1, §2
# [8] = test system: C. rodentium; format: cell-based; conditions: 1 µg peptide/well, 2.5 mm = empty well
# Description: as §3
# [9] = test system: P. aeruginosa; format: cell-based; conditions: 1 µg peptide/well, 2.5 mm = empty well
# Description: as §3
# [10] = test system: S. Typhimurium; format: cell-based; conditions: for diameter of inhibition zone: 1 µg peptide/well, 2.5 mm = empty well
# Description: as §3
# [11] = test system: S. aureus; format: cell-based; conditions: 1 µg peptide/well, 2.5 mm = empty well
# Description: as §3
compound,measurement,setting,value
CC1(C)S[C@@H]2[C@H](NC(=O)[C@H](N)c3ccccc3)C(=O)N2[C@H]1C(=O)O [Ampicillin],MIC,[1]; strain DSM682,≥ 32 mg/L
same,MIC,[1]; strain DSM8695,8 mg/L
C[C@H]1[C@H](NC(=O)/C(=N\OC(C)(C)C(=O)O)c2csc(N)n2)C(=O)N1S(=O)(=O)O [Aztreonam],MIC,[2]; read-out: MIC (antibiogram),> 256 mg/L
CO/N=C(\C(=O)N[C@@H]1C(=O)N2C(C(=O)O)=C(COC(N)=O)CS[C@H]12)c1ccco1 [Cefuroxim],MIC,[1]; strain DSM682,≥ 64 mg/L
O=C(N[C@H](CO)[C@H](O)c1ccc([N+](=O)[O-])cc1)C(Cl)Cl [Chloramphenicol],diameter (antibiogram),"[2]; one strain of E. faecium, S. aureus or K. pneumoniae, not assignable",22 mm
CCCCCCCCCC(=O)N[C@@H](Cc1c[nH]c2ccccc12)C(=O)N[C@H](CC(N)=O)C(=O)N[C@@H](CC(=O)O)C(=O)N[C@@H]1C(=O)NCC(=O)N[C@@H](CCCN)C(=O)N[C@@H](CC(=O)O)C(=O)N[C@H](C)C(=O)N[C@@H](CC(=O)O)C(=O)NCC(=O)N[C@H](CO)C(=O)N[C@@H]([C@H](C)CC(=O)O)C(=O)N[C@@H](CC(=O)c2ccccc2N)C(=O)O[C@@H]1C [Daptomycin],MIC (antibiogram),[3],4 mg/L
CNC(C)C1CCC(N)C(OC2C(N)CC(N)C(OC3OCC(C)(O)C(NC)C3O)C2O)O1 (centres unmarked) [Gentamicin],MIC,[1]; strain DSM8695,≤ 1 mg/L
C[C@@H](O)[C@H]1C(=O)N2C(C(=O)O)=C(SCCN=CN)C[C@H]12 [Imipenem],MIC,[1]; strain DSM682,2 mg/L
same,MIC,[1]; strain DSM8695,≤ 0.25 mg/L
C[C@@H](O)[C@H]1C(=O)N2C(C(=O)O)=C(S[C@@H]3CN[C@H](C(=O)N(C)C)C3)[C@H](C)[C@H]12 [Meropenem],MIC,[1]; strain DSM682,8 mg/L
same,MIC,[1]; strain DSM8695,≤ 0.25 mg/L
CCCCCCCCCCCCCCCC(=O)OCC(COC(=O)CCC(=O)N[C@@H](CCCNC(=N)N)C(=O)NCC(=O)N[C@@H](CCCCN)C(=O)N[C@@H](C)C(=O)N[C@@H](CCCCN)C(=O)N[C@@H](CS)C(=O)N[C@@H](CS)C(=O)N[C@@H](CCCCN)C(=O)O)OC(=O)CCCCCCCCCCCCCCC (some centres unmarked) [Pam-1] (X2-RGKAKCCK-OH; C-terminus assumed),bactericidal activity (in words),[4],no or low bactericidal activity
same,antimicrobial activity (in words),[5],generally inactive
CCCCCCCCCCCCCCCC(=O)NC(CSCC(COC(=O)CCCCCCCCCCCCCCC)OC(=O)CCCCCCCCCCCCCCC)C(=O)N[C@@H](CCCNC(=N)N)C(=O)NCC(=O)N[C@@H](CCCCN)C(=O)N[C@@H](C)C(=O)N[C@@H](CCCCN)C(=O)N[C@@H](CS)C(=O)N[C@@H](CS)C(=O)N[C@@H](CCCCN)C(=O)O (some centres unmarked) [Pam-4] (Palmitoyl-[ξC](X1)RGKAKCCK-OH; C-terminus assumed),bactericidal activity (in words),[4],no or low bactericidal activity
same,antimicrobial activity (in words),[5],generally inactive
CCCCCCCCCCCCCCCC(=O)NCCCCC(NC(=O)CCCCCCCCCCCCCCC)C(=O)N[C@@H](CCCNC(=N)N)C(=O)NCC(=O)N[C@@H](CCCCN)C(=O)N[C@@H](C)C(=O)N[C@@H](CCCCN)C(=O)N[C@@H](CS)C(=O)N[C@@H](CS)C(=O)N[C@@H](CCCCN)C(=O)O (some centres unmarked) [Pam-5] (Palmitoyl-[ξK](Palmitoyl)RGKAKCCK-OH; C-terminus assumed),bactericidal activity (in words),[4],moderate effects
same,antimicrobial activity (in words),[5],generally inactive
CCN1CCN(C(=O)N[C@@H](C(=O)N[C@@H]2C(=O)N3[C@@H]2SC(C)(C)[C@@H]3C(=O)O)c2ccccc2)C(=O)C1=O [Piperacillin],MIC,[1]; strain DSM8695,≤ 4 mg/L
"CO[C@H]1/C=C/O[C@@]2(C)Oc3c(C)c(O)c4c(O)c(c(/C=N/N5CCN(C)CC5)c(O)c4c3C2=O)NC(=O)/C(C)=C\C=C\[C@H](C)[C@H](O)[C@@H](C)[C@@H](O)[C@@H](C)[C@H](OC(C)=O)[C@@H]1C [Rifampicin, reference compound]",Fold change in MIC,[6]; Day (passage) 0,1.0
same,Fold change in MIC,[6]; Day (passage) 1,0.8
same,Fold change in MIC,[6]; Day (passage) 2,1.0
same,Fold change in MIC,[6]; Day (passage) 3,1.0
same,Fold change in MIC,[6]; Day (passage) 4,1.7
same,Fold change in MIC,[6]; Day (passage) 5,3.7
same,Fold change in MIC,[6]; Day (passage) 6,43.3
same,Fold change in MIC,[6]; Day (passage) 7,87.3
same,Fold change in MIC,[6]; Day (passage) 8,163.3
same,Fold change in MIC,[6]; Day (passage) 9,348.0
same,Fold change in MIC,[6]; Day (passage) 10,768.7
same,Fold change in MIC,[6]; Day (passage) 11,1366.0
same,Fold change in MIC,[6]; Day (passage) 12,2731.4
same,Fold change in MIC,[6]; Day (passage) 13,2732.0
same,Fold change in MIC,[6]; Day (passage) 14,3200.7
same,Fold change in MIC,[6]; Day (passage) 15,4267.4
same,Fold change in MIC,[6]; Day (passage) 16,4267.4
same,Fold change in MIC,[6]; Day (passage) 17,4268.0
same,Fold change in MIC,[6]; Day (passage) 18,4267.4
same,Fold change in MIC,[6]; Day (passage) 19,2733.4
same,Fold change in MIC,[6]; Day (passage) 20,2731.5
same,Fold change in MIC,[6]; Day (passage) 21,2731.4
same,Fold change in MIC,[6]; Day (passage) 22,2731.4
same,Fold change in MIC,[6]; Day (passage) 23,2733.4
same,Fold change in MIC,[6]; Day (passage) 24,2741.4
same,Fold change in MIC,[6]; Day (passage) 25,2816.0
same,increase of MIC,[6]; after 15 passages,≥ 4096 fold
CN(C)[C@@H]1C(=O)C(C(N)=O)=C(O)[C@@]2(O)C(=O)C3=C(O)c4c(O)cccc4[C@@](C)(O)[C@H]3C[C@@H]12 [Tetracyclin],MIC (antibiogram),"[2]; one strain of A. baumannii, P. aeruginosa or E. coli, not assignable",≥ 256 mg/L
NC[C@H]1O[C@H](O[C@H]2[C@H](O)[C@@H](O[C@H]3O[C@H](CO)[C@@H](O)[C@H](N)[C@H]3O)[C@H](N)C[C@@H]2N)[C@H](N)C[C@@H]1O [Tobramycin],MIC,[1]; strain DSM8695,≤ 1 mg/L
CN[C@H](CC(C)C)C(=O)N[C@H]1C(=O)N[C@@H](CC(N)=O)C(=O)N[C@H]2C(=O)N[C@H]3C(=O)N[C@H](C(=O)N[C@H](C(=O)O)c4cc(O)cc(O)c4-c4cc3ccc4O)[C@H](O)c3ccc(c(Cl)c3)Oc3cc2cc(c3O[C@@H]2O[C@H](CO)[C@@H](O)[C@H](O)[C@H]2O[C@H]2C[C@](C)(N)[C@H](O)[C@H](C)O2)Oc2ccc(cc2Cl)[C@H]1O [Vancomycin],MIC,"[3]; DSM2918, read-out: MIC (antibiogram)",≥ 32 mg/L
same,MIC,[3]; read-out: MIC (antibiogram),≥ 32 mg/L
same,MIC,"[7]; ATCC33592, read-out: MIC (antibiogram)",1 mg/L
same,MIC,"[7]; ATCC43300, read-out: MIC (antibiogram)",1 mg/L
same,MIC,"[7]; DSM20231, read-out: MIC (antibiogram)",1 mg/L
"RGKAKCCK [Octapeptide, the C-terminal eight amino acids of human β-defensin 1]",diameter of inhibition zone,[8]; experiment 1 of 3,5.5 mm
same,diameter of inhibition zone,[8]; experiment 2 of 3,5 mm
same,diameter of inhibition zone,[8]; experiment 3 of 3,5.5 mm
same,diameter of inhibition zone,[9]; experiment 1 of 3,3.5 mm
same,diameter of inhibition zone,[9]; experiment 2 of 3,4 mm
same,diameter of inhibition zone,[9]; experiment 3 of 3,4 mm
same,diameter of inhibition zone,[10]; experiment 1 of 3,2.5 mm
same,diameter of inhibition zone,[10]; experiment 2 of 3,2.5 mm
same,diameter of inhibition zone,[10]; experiment 3 of 3,2.5 mm
same,inhibition of S. Typhimurium growth (in words),[10]; radial diffusion assay,failed to inhibit
same,diameter of inhibition zone,[11]; experiment 1 of 3,6 mm
same,diameter of inhibition zone,[11]; experiment 2 of 3,7 mm
same,diameter of inhibition zone,[11]; experiment 3 of 3,6.5 mm
